Several values for one entry are separate records, joined by “and”; a condition that tells them apart may be missing. Identical values can stand only once. Toxic doses and inconclusive results are not listed. The calls were made as follows: active = survival T/C of 150% or more; inactive = T/C below 125% in these data.
System: P388 leukemia ip, CD2F1 mice, survival T/C
Assay: NCI In Vivo Anticancer Drug Screen. Data for tumor model P388 Leukemia (intraperitoneal) in CD2F1 (CDF1) mice
Settings: endpoint: median survival time, higher = longer survival
Method in brief: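 Mice carrying the transplanted tumor received test compound or vehicle. Survival was recorded in each group, and the value is the treated-group measurement divided by that of the vehicle-treated control group.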

[1] = dose: 50.0 mg/kg/injection, schedule: Q01DX005 (ip), vehicle: saline with Tween-80
[2] = dose: 100.0 mg/kg/injection, schedule: Q01DX005 (ip), vehicle: saline with Tween-80
[3] = dose: 200.0 mg/kg/injection, schedule: Q01DX005 (ip), vehicle: saline with Tween-80
[4] = dose: 60.0 mg/kg/injection, schedule: Q01DX005 (ip), vehicle: Klucel (hydroxypropylcellulose) (HPC)
[5] = dose: 120.0 mg/kg/injection, schedule: Q01DX005 (ip), vehicle: Klucel (hydroxypropylcellulose) (HPC)
[6] = dose: 60.0 mg/kg/injection, schedule: Q01DX005 (ip), vehicle: saline with Tween-80
[7] = dose: 120.0 mg/kg/injection, schedule: Q01DX005 (ip), vehicle: saline with Tween-80
[8] = dose: 240.0 mg/kg/injection, schedule: Q01DX005 (ip), vehicle: saline with Tween-80
[9] = dose: 100.0 mg/kg/injection, schedule: Q01DX001 (ip), vehicle: saline with Tween-80
[10] = dose: 200.0 mg/kg/injection, schedule: Q01DX001 (ip), vehicle: saline with Tween-80
[11] = dose: 400.0 mg/kg/injection, schedule: Q01DX001 (ip), vehicle: saline with Tween-80
[12] = dose: 100.0 mg/kg/injection, schedule: Q04DX002 (ip), vehicle: saline
[13] = dose: 200.0 mg/kg/injection, schedule: Q04DX002 (ip), vehicle: saline
[14] = dose: 100.0 mg/kg/injection, schedule: Q01DX005 (ip), vehicle: Klucel (hydroxypropylcellulose) (HPC)
[15] = dose: 200.0 mg/kg/injection, schedule: Q01DX005 (ip), vehicle: Klucel (hydroxypropylcellulose) (HPC)
[16] = dose: 50.0 mg/kg/injection, schedule: Q01DX009 (ip), vehicle: Klucel (hydroxypropylcellulose) (HPC)
[17] = dose: 100.0 mg/kg/injection, schedule: Q01DX009 (ip), vehicle: Klucel (hydroxypropylcellulose) (HPC)

Measured: T/C

Cc1cccc(N(CCO)CCC#N)c1
inactive: dose: 50.0 mg/kg/injection, schedule: Q01DX005 (ip), vehicle: distilled water + Tween-80 + alcohol 102 % of control | dose: 100.0 mg/kg/injection, schedule: Q01DX005 (ip), vehicle: distilled water + Tween-80 + alcohol 101 % of control | dose: 200.0 mg/kg/injection, schedule: Q01DX005 (ip), vehicle: distilled water + Tween-80 + alcohol 94 % of control

C[C@@H]1CCC[C@H]1CC(N)C(=O)O (stereo partly specified)
inactive: [1] 99 % of control | [2] 95 % of control | [3] 91 % of control

NC(Cc1ccc(O)c(Cl)c1)C(=O)O (stereo unspecified)
inactive: dose: 50.0 mg/kg/injection, schedule: Q01DX005 (ip), vehicle: saline 98 % of control | dose: 100.0 mg/kg/injection, schedule: Q01DX005 (ip), vehicle: saline 98 % of control | dose: 200.0 mg/kg/injection, schedule: Q01DX005 (ip), vehicle: saline 95 % of control

CN(C)c1ccc(SC(=S)NCc2ccccc2)cc1
inactive: [4] 88 % of control | [5] 88 % of control

Cc1cc2[nH]c3c(C#N)c(O)c(C(C)C)c(=O)n3c2cc1C
inactive: [6] 103 % of control | [7] 100 % of control | [8] 94 % of control

S=c1[nH]nc2nc3c4ccccc4c4ncccc4c3nn12
inactive: [9] 92 % of control | [10] 91 % of control | [11] 100 % of control

COc1ccc2nccc(CC(O)C(Cl)(Cl)Cl)c2c1 (stereo unspecified)
inactive: [1] 105 % of control | [2] 93 % of control | [3] 101 % of control

CCOC(=O)c1cc2c(ccn2OC)[nH]1
inactive: dose: 100.0 mg/kg/injection, schedule: Q04DX003 (ip), vehicle: saline with Tween-80 102 % of control

CC(NC(=O)c1cccc2c1Oc1ccccc1S2)C(=O)O (stereo unspecified)
inactive: dose: 50.0 mg/kg/injection, schedule: Q04DX002 (ip), vehicle: saline 104 % of control | [12] 98 % of control | dose: 200.0 mg/kg/injection, schedule: Q04DX002 (ip), vehicle: saline with Tween-80 93 % of control | [13] 99 % of control

Cc1cc(NC(=O)C(=O)CC(=O)c2ccc(Cl)c(Cl)c2)no1
inactive: [9] 101 % of control | [10] 108 % of control | [11] 97 % of control

C=C(C)c1nc(N)nc(N(C)C)n1
inactive: dose: 50.0 mg/kg/injection, schedule: Q01DX005 (ip), vehicle: Klucel (hydroxypropylcellulose) (HPC) 100 % of control | [14] 102 % of control | [15] 100 % of control

O=C(Nc1ccc(Br)cc1)Oc1ccc(Cl)cc1C(=O)c1ccccc1
inactive: [4] 105 % of control | [5] 105 % of control | dose: 240.0 mg/kg/injection, schedule: Q01DX005 (ip), vehicle: Klucel (hydroxypropylcellulose) (HPC) 108 % of control

CC1=NNC(=O)C1
inactive: [16] 86 % of control | [17] 102 % of control | dose: 200.0 mg/kg/injection, schedule: Q01DX009 (ip), vehicle: Klucel (hydroxypropylcellulose) (HPC) 94 % of control | dose: 400.0 mg/kg/injection, schedule: Q01DX009 (ip), vehicle: Klucel (hydroxypropylcellulose) (HPC) 106 % of control

O=CNC(Cc1ccc(O)cc1)C(=O)O (stereo unspecified)
inactive: dose: 12.5 mg/kg/injection, schedule: Q01DX005 (ip), vehicle: Klucel (hydroxypropylcellulose) (HPC) 102 % of control and 105 % of control | dose: 25.0 mg/kg/injection, schedule: Q01DX005 (ip), vehicle: Klucel (hydroxypropylcellulose) (HPC) 100 % of control and 104 % of control | [14] 101 % of control and 107 % of control | [15] 96 % of control

C1CC[N-]CC1.C1CC[N-]CC1.C1CC[N-]CC1.C1CC[N-]CC1.O=S(=O)(O)O.[Cu+2]
inactive: dose: 10.0 mg/kg/injection, schedule: Q04DX002 (ip), vehicle: saline 100 % of control | dose: 20.0 mg/kg/injection, schedule: Q04DX002 (ip), vehicle: saline 110 % of control

C=C1CCC(=O)NC1=O
inactive: dose: 6.25 mg/kg/injection, schedule: Q01DX005 (ip), vehicle: saline 105 % of control | dose: 12.5 mg/kg/injection, schedule: Q01DX005 (ip), vehicle: saline 102 % of control | dose: 25.0 mg/kg/injection, schedule: Q01DX005 (ip), vehicle: saline 99 % of control | [1] 116 % of control

Cc1ccc2ccccc2c1N(CC(=O)O)S(=O)(=O)c1ccccc1 (tested in a mixture with another compound)
inactive: dose: 12.5 mg/kg/injection, schedule: Q01DX001 (ip), vehicle: saline with Tween-80 110 % of control | dose: 25.0 mg/kg/injection, schedule: Q01DX001 (ip), vehicle: saline with Tween-80 105 % of control | dose: 50.0 mg/kg/injection, schedule: Q01DX001 (ip), vehicle: saline with Tween-80 110 % of control

S=c1[nH]nc(-c2n[nH]c3ccccc23)o1
inactive: [1] 100 % of control | [2] 100 % of control | [3] 97 % of control

Nc1nc2c(ncn2C2OC(CO)C(O)C2O)c(=O)n1N (stereo unspecified)
inactive: dose: 12.5 mg/kg/injection, schedule: Q01DX009 (ip), vehicle: Klucel (hydroxypropylcellulose) (HPC) 100 % of control and 102 % of control | dose: 25.0 mg/kg/injection, schedule: Q01DX009 (ip), vehicle: Klucel (hydroxypropylcellulose) (HPC) 103 % of control | [16] 101 % of control and 108 % of control | [17] 104 % of control and 113 % of control

CN1CCc2nc[nH]c2C1
inactive: [12] 97 % of control | [13] 101 % of control | dose: 400.0 mg/kg/injection, schedule: Q04DX002 (ip), vehicle: saline 99 % of control

COC(=O)[C@@H]1CCC(/C(C#N)=C2/CC[C@@H](C(=O)OC)N2)=N1
inactive: [6] 96 % of control | [7] 95 % of control | [8] 94 % of control

O=NN(C(=O)NC1CC1)C1CCCC1
inactive: dose: 25.0 mg/kg/injection, schedule: Q01DX001 (ip), vehicle: distilled water + Tween-80 103 % of control | dose: 50.0 mg/kg/injection, schedule: Q01DX001 (ip), vehicle: distilled water + Tween-80 109 % of control | dose: 100.0 mg/kg/injection, schedule: Q01DX001 (ip), vehicle: distilled water + Tween-80 102 % of control | dose: 200.0 mg/kg/injection, schedule: Q01DX001 (ip), vehicle: distilled water + Tween-80 111 % of control | dose: 400.0 mg/kg/injection, schedule: Q01DX001 (ip), vehicle: distilled water + Tween-80 102 % of control

Cc1cc(=O)n2c3c(c4c(cc13)c(CBr)cc(=O)n4C)OC2
inactive: dose: 12.5 mg/kg/injection, schedule: Q01DX001 (ip), vehicle: Klucel (hydroxypropylcellulose) (HPC) 96 % of control | dose: 25.0 mg/kg/injection, schedule: Q01DX001 (ip), vehicle: Klucel (hydroxypropylcellulose) (HPC) 96 % of control | dose: 50.0 mg/kg/injection, schedule: Q01DX001 (ip), vehicle: Klucel (hydroxypropylcellulose) (HPC) 112 % of control | dose: 100.0 mg/kg/injection, schedule: Q01DX001 (ip), vehicle: Klucel (hydroxypropylcellulose) (HPC) 101 % of control

COc1ccc(C(O)c2ncccc2C)cc1OC (stereo unspecified)
inactive: dose: 12.5 mg/kg/injection, schedule: Q01DX009 (ip), vehicle: water 102 % of control | dose: 25.0 mg/kg/injection, schedule: Q01DX009 (ip), vehicle: water 94 % of control | dose: 50.0 mg/kg/injection, schedule: Q01DX009 (ip), vehicle: water 99 % of control | dose: 100.0 mg/kg/injection, schedule: Q01DX009 (ip), vehicle: water 100 % of control | dose: 200.0 mg/kg/injection, schedule: Q01DX009 (ip), vehicle: water 101 % of control

O=[N+]([O-])c1ccc2nnnn2c1
inactive: dose: 50.0 mg/kg/injection, schedule: Q01DX009 (ip), vehicle: saline 100 % of control | dose: 100.0 mg/kg/injection, schedule: Q01DX009 (ip), vehicle: saline 107 % of control | dose: 200.0 mg/kg/injection, schedule: Q01DX009 (ip), vehicle: saline 100 % of control

Source: PubChem BioAssay AID330 (DTP/NCI, 2004)
